Data from patent US9156872B2, “2′-azido substituted nucleoside derivatives and methods of use thereof for the treatment of viral diseases” (priority 2011, dated 2015).
Like-named read-outs stand apart in the source and are kept apart here.

Tested on: HCV replicon cells
Test: Cell-based HCV replicon assay (replicon RNA by Taqman real time PCR)
Details: read-out: 1b EC50

SMILES | EC50 (Hepatitis C virus, 72 h) | also measured
CCOC(=O)c1ccccc1OP(=O)(N[C@@H](C)C(=O)OC)OC[C@H]1O[C@@H](n2cnc3c(OC)nc(N)nc32)[C@](C)(N=[N+]=[N-])[C@@H]1O (some centres unmarked) [Compound 224] | 3300 nM | –
COC(=O)[C@H](C)NP(=O)(OC[C@H]1O[C@@H](n2ccc(=O)[nH]c2=O)[C@](C)(N=[N+]=[N-])[C@@H]1O)Oc1ccc(Cl)c(Cl)c1 (some centres unmarked) [Compound 229] | 30 nM | –
C[C@H](NP(=O)(OC[C@H]1O[C@@H](n2ccc(=O)[nH]c2=O)[C@](C)(N=[N+]=[N-])[C@@H]1O)Oc1cccc2ccccc12)C(=O)OCc1ccccc1 (some centres unmarked) [Compound 230] | 14000 nM | –
CC(C)OC(=O)[C@H](C)NP(=O)(OC[C@H]1O[C@@H](n2ccc(=O)[nH]c2=O)[C@](C)(N=[N+]=[N-])[C@@H]1O)Oc1ccc2c(c1)OCO2 (some centres unmarked) [Compound 234] | – | EC50: 25000 nM
COC(=O)[C@H](C)NP(=O)(OC[C@H]1O[C@@H](n2ccc(=O)[nH]c2=O)[C@](C)(N=[N+]=[N-])[C@@H]1O)Oc1cccc2ccccc12 (some centres unmarked) [Compound 235] | – | EC50: 3 nM
COC(=O)[C@H](C)NP(=O)(OC[C@H]1O[C@@H](n2ccc(=O)[nH]c2=O)[C@](C)(N=[N+]=[N-])[C@@H]1O)Oc1ccccc1Cl (some centres unmarked) [Compound 236] | – | EC50: 6400 nM
COc1nc(N)nc2c1ncn2[C@@H]1O[C@H](COP(=O)(N[C@@H](C)C(=O)OC2CCCCC2)Oc2ccccc2)[C@@H](O)[C@@]1(C)N=[N+]=[N-] (some centres unmarked) [Compound 239] | 3600 nM | –
COc1nc(N)nc2c1ncn2[C@@H]1O[C@H](COP(=O)(N[C@@H](C)C(=O)OC(C)C)Oc2ccccc2Cl)[C@@H](O)[C@@]1(C)N=[N+]=[N-] (some centres unmarked) [Compound 240] | 5800 nM | –
COc1nc(N)nc2c1ncn2[C@@H]1O[C@H](COP(=O)(N[C@@H](C)C(=O)OC2CCCCC2)Oc2ccc(F)cc2)[C@@H](O)[C@@]1(C)N=[N+]=[N-] (some centres unmarked) [Compound 241] | 1900 nM | –
COC(=O)[C@H](C)NP(=O)(OC[C@H]1O[C@@H](n2cnc3c(OC)nc(N)nc32)[C@](C)(N=[N+]=[N-])[C@@H]1O)Oc1ccc(F)cc1 (some centres unmarked) [Compound 242] | 2600 nM | –
COc1nc(N)nc2c1ncn2[C@@H]1O[C@H](COP(=O)(N[C@@H](C)C(=O)OC(C)C)Oc2ccc(F)cc2)[C@@H](O)[C@@]1(C)N=[N+]=[N-] (some centres unmarked) [Compound 243] | 1400 nM | –
COc1nc(N)nc2c1ncn2[C@@H]1O[C@H](COP(=O)(N[C@@H](C)C(=O)OC(C)C)Oc2ccc(Cl)c(Cl)c2)[C@@H](O)[C@@]1(C)N=[N+]=[N-] (some centres unmarked) [Compound 244] | 6000 nM | –
COc1nc(N)nc2c1ncn2[C@@H]1O[C@H](COP(=O)(N[C@@H](C)C(=O)OCC(C)C)Oc2ccccc2)[C@@H](O)[C@@]1(C)N=[N+]=[N-] (some centres unmarked) [Compound 245] | 400 nM | –
COc1nc(N)nc2c1ncn2[C@@H]1O[C@H](COP(=O)(N[C@@H](C)C(=O)OCc2ccccc2)Oc2ccccc2)[C@@H](O)[C@@]1(C)N=[N+]=[N-] (some centres unmarked) [Compound 246] | 600 nM | –
CCOC(=O)[C@H](C)NP(=O)(OC[C@H]1O[C@@H](n2cnc3c(OC)nc(N)nc32)[C@](C)(N=[N+]=[N-])[C@@H]1O)Oc1ccc(F)cc1 (some centres unmarked) [Compound 247] | 700 nM | –
COC(=O)[C@H](C)NP(=O)(OC[C@H]1O[C@@H](n2cnc3c(OC)nc(N)nc32)[C@](C)(N=[N+]=[N-])[C@@H]1O)Oc1ccc(Cl)c(Cl)c1 (some centres unmarked) [Compound 248] | 1000 nM | –
CCCCOC(=O)[C@H](C)NP(=O)(OC[C@H]1O[C@@H](n2cnc3c(OC)nc(N)nc32)[C@](C)(N=[N+]=[N-])[C@@H]1O)Oc1ccccc1 (some centres unmarked) [Compound 249] | 900 nM | –
CCOC(=O)[C@H](C)NP(=O)(OC[C@H]1O[C@@H](n2cnc3c(OC)nc(N)nc32)[C@](C)(N=[N+]=[N-])[C@@H]1O)Oc1ccccc1 (some centres unmarked) [Compound 250] | – | EC50: 700 nM
COc1nc(N)nc2c1ncn2[C@@H]1O[C@H](COP(=O)(N[C@@H](C)C(=O)OCC(C)C)Oc2ccc(Cl)cc2)[C@@H](O)[C@@]1(C)N=[N+]=[N-] (some centres unmarked) [Compound 285] | 1100 nM | –
C[C@H](NP(=O)(OC[C@H]1O[C@@H](n2ccc(=O)[nH]c2=O)[C@](C)(N=[N+]=[N-])[C@@H]1O)Oc1ccccc1)C(=O)OCc1ccccc1 (some centres unmarked) [Compound 299] | 5600 nM | –
C[C@H](NP(=O)(OC[C@H]1O[C@@H](n2ccc(=O)[nH]c2=O)[C@](C)(N=[N+]=[N-])[C@@H]1O)Oc1ccc(Cl)cc1)C(=O)OCc1ccccc1 (some centres unmarked) [Compound 304] | 60000 nM | –
C[C@H](NP(=O)(OC[C@H]1O[C@@H](n2ccc(=O)[nH]c2=O)[C@](C)(N=[N+]=[N-])[C@@H]1O)Oc1ccc2c(c1)OCO2)C(=O)OCc1ccccc1 (some centres unmarked) [Compound 305] | 1200 nM | –
C[C@H](NP(=O)(OC[C@H]1O[C@@H](n2ccc(=O)[nH]c2=O)[C@](C)(N=[N+]=[N-])[C@@H]1O)Oc1ccc2c(c1)OCO2)C(=O)OCc1ccccc1 (some centres unmarked) [Compound 306] | – | EC50: 1300 nM
CCOc1nc(N)nc2c1ncn2[C@@H]1O[C@H](COP(=O)(N[C@@H](C)C(=O)OC2CCCCC2)Oc2ccc(Cl)cc2)[C@@H](O)[C@@]1(C)N=[N+]=[N-] (some centres unmarked) [Compound 307] | 33000 nM | –

SMILES | EC50 (Hepatitis C virus, 72 h) | also measured
CCOc1nc(N)nc2c1ncn2[C@@H]1O[C@H](COP(=O)(N[C@@H](C)C(=O)OC)Oc2ccc(Cl)c(Cl)c2)[C@@H](O)[C@@]1(C)N=[N+]=[N-] (some centres unmarked) [Compound 308] | 2100 nM | –
CCCC(CCC)COC(=O)[C@H](C)NP(=O)(OC[C@H]1O[C@@H](n2ccc(N)nc2=O)[C@](C)(N=[N+]=[N-])[C@@H]1O)Oc1ccccc1 (some centres unmarked) [Compound 317] | 39000 nM | –
CCCC(CCC)COC(=O)[C@H](C)NP(=O)(O)OC[C@H]1O[C@@H](n2ccc(N)nc2=O)[C@](C)(N=[N+]=[N-])[C@@H]1O [Compound 318] | – | EC50 (Hepatitis C virus, 72 h, HCV replicon 1b, cells harvested on day 3): 100000 nM
CCOC(=O)[C@H](C)NP(=O)(OC[C@H]1O[C@@H](n2ccc(=O)[nH]c2=O)[C@](C)(N=[N+]=[N-])[C@@H]1O)Oc1ccc(Cl)cc1 (some centres unmarked) [Compound 323] | – | EC50: 5300 nM
C[C@H](NP(=O)(OC[C@H]1O[C@@H](n2ccc(=O)[nH]c2=O)[C@](C)(N=[N+]=[N-])[C@@H]1O)Oc1ccc(Cl)cc1)C(=O)OC1CCCCC1 (some centres unmarked) [Compound 324] | 4300 nM | –
COC(=O)[C@H](C)NP(=O)(OC[C@H]1O[C@@H](n2ccc(=O)[nH]c2=O)[C@](C)(N=[N+]=[N-])[C@@H]1O)Oc1ccc(Cl)cc1 (some centres unmarked) [Compound 325] | – | EC50: 4000 nM
CCCC(CCC)COC(=O)[C@H](C)NP(=O)(OC[C@H]1O[C@@H](n2ccc(=O)[nH]c2=O)[C@](C)(N=[N+]=[N-])[C@@H]1O)Oc1ccccc1 (some centres unmarked) [Compound 328] | 2100 nM | –
C[C@H](NP(=O)(OC[C@H]1O[C@@H](n2ccc(N)nc2=O)[C@](C)(N=[N+]=[N-])[C@@H]1O)Oc1ccccc1)C(=O)OC1CCCC1 (some centres unmarked) [Compound 336] | – | EC50: 15000 nM
CCOc1nc(N)nc2c1ncn2[C@@H]1O[C@H](COP(=O)(N[C@@H](C)C(=O)OC(C)C)Oc2ccc(F)cc2)[C@@H](O)[C@@]1(C)N=[N+]=[N-] (some centres unmarked) [Compound 347] | 700 nM | –
CCOc1nc(N)nc2c1ncn2[C@@H]1O[C@H](COP(=O)(N[C@@H](C)C(=O)OC(C)C)Oc2ccc(Cl)c(Cl)c2)[C@@H](O)[C@@]1(C)N=[N+]=[N-] (some centres unmarked) [Compound 348] | 5000 nM | –
CCOC(=O)[C@H](C)NP(=O)(OC[C@H]1O[C@@H](n2cnc3c(OCC)nc(N)nc32)[C@](C)(N=[N+]=[N-])[C@@H]1O)Oc1ccccc1Cl (some centres unmarked) [Compound 349] | 2000 nM | –
CCOc1nc(N)nc2c1ncn2[C@@H]1O[C@H](COP(=O)(N[C@@H](C)C(=O)OCC(C)(C)C)Oc2ccccc2Cl)[C@@H](O)[C@@]1(C)N=[N+]=[N-] (some centres unmarked) [Compound 357] | 100000 nM | –
CCCCOC(=O)[C@H](C)NP(=O)(OC[C@H]1O[C@@H](n2cnc3c(OCC)nc(N)nc32)[C@](C)(N=[N+]=[N-])[C@@H]1O)Oc1ccc(F)cc1 (some centres unmarked) [Compound 366] | 400 nM | –
CCCCOC(=O)[C@H](C)NP(=O)(OC[C@H]1O[C@@H](n2ccc(=O)[nH]c2=O)[C@](C)(N=[N+]=[N-])[C@@H]1O)Oc1ccc(F)cc1 (some centres unmarked) [Compound 367] | 3300 nM | –
CCCCOC(=O)[C@H](C)NP(=O)(OC[C@H]1O[C@@H](n2cnc3c(OCC)nc(N)nc32)[C@](C)(N=[N+]=[N-])[C@@H]1O)Oc1ccc(Cl)cc1 (some centres unmarked) [Compound 368] | 80 nM | –
CCCCOC(=O)[C@H](C)NP(=O)(OC[C@H]1O[C@@H](n2ccc(=O)[nH]c2=O)[C@](C)(N=[N+]=[N-])[C@@H]1O)Oc1ccc(Cl)cc1 (some centres unmarked) [Compound 369] | 500 nM | –
CCCCOC(=O)[C@H](C)NP(=O)(OC[C@H]1O[C@@H](n2cnc3c(OCC)nc(N)nc32)[C@](C)(N=[N+]=[N-])[C@@H]1O)Oc1ccc(Cl)c(Cl)c1 (some centres unmarked) [Compound 370] | 10000 nM | –
CCCCOC(=O)[C@H](C)NP(=O)(OC[C@H]1O[C@@H](n2cnc3c(OCC)nc(N)nc32)[C@](C)(N=[N+]=[N-])[C@@H]1O)Oc1ccc2c(c1)OCO2 (some centres unmarked) [Compound 371] | 1400 nM | –
CCCCOC(=O)[C@H](C)NP(=O)(OC[C@H]1O[C@@H](n2ccc(=O)[nH]c2=O)[C@](C)(N=[N+]=[N-])[C@@H]1O)Oc1ccc(Cl)c(Cl)c1 (some centres unmarked) [Compound 372] | 6000 nM | –
CCCOC(=O)[C@H](C)NP(=O)(OC[C@H]1O[C@@H](n2ccc(=O)[nH]c2=O)[C@](C)(N=[N+]=[N-])[C@@H]1O)Oc1cccc2ccccc12 (some centres unmarked) [Compound 374] | 5600 nM | –
CCCCOC(=O)[C@H](C)NP(=O)(OC[C@H]1O[C@@H](n2ccc(=O)[nH]c2=O)[C@](C)(N=[N+]=[N-])[C@@H]1O)Oc1ccccc1Cl (some centres unmarked) [Compound 377] | 6800 nM | –
COC(=O)[C@H](C)NP(=O)(OC[C@H]1O[C@@H](n2ccc(=O)[nH]c2=O)[C@](C)(N=[N+]=[N-])[C@@H]1O)Oc1cc(C)ccc1C(C)C (some centres unmarked) [Compound 379] | 1200 nM | –
COC(=O)[C@H](C)NP(=O)(OC[C@H]1O[C@@H](n2cnc3c(NC4CC4)nc(N)nc32)[C@](C)(N=[N+]=[N-])[C@@H]1O)Oc1ccccc1Cl (some centres unmarked) [Compound 385] | 1400 nM | –
